# In patent US6814969B2, “Immunologically significant herpes simplex virus antigens and methods for using same” (University of Washington, priority 2001, dated 2004):
# B1: VP22 105-190: fusion protein containing VP22 amino acids 105-190 (protein)
# chain: GGPVGAGGRSHAPPARTPKMTRGAPKASATPATDPARGRRPAQADSAVLLDAPAPTASGRTKTPAQGLAKKLHFSTAPPSPTAPWT
# modifications: left off: large carriers
# B2: β-gal-VP16 180-492: β-galactosidase fusion protein with HSV-2 VP16 180-492 (protein)
# chain: YLRASVRQLHRQAHMRGRNRDLREMLRTTIADRYYRETARLARVLFLHLYLFLSREILWAAYAEQMMRPDLFDGLCCDLESWRQLACLFQPLMFINGSLTVRGVPVEARRLRELNHIREHLNLPLVRSAAAEEPGAPLTTPPVLQGNQARSSGYFMLLIRAKLDSYSSVATSEGESVMREHAYSRGRTRNNYGSTIEGLLDLPDDDDAPAEAGLVAPRMSFLSAGQRPRRLSTTAPITDVSLGDELRLDGEEVDMTPADALDDFDLEMLGDVESPSPGMTHDPVSYGALDVDDFEFEQMFTDAMGIDDFGG
# modifications: left off: large carriers
# Columns and labels:
# Type in all cases: cell-based, human
# TCC 4.2E1 [1] = assay: Cytolysis assay (4-hour 51Cr release), CD4 TCC 4.2E1; conditions: E:T 20:1
# Method: (§1) Cytolysis assays were performed in triplicate using 4-hour [^51]Cr release as described (D. M. Koelle et al., 1993, J. Clin. Invest., 91:961-968). […] W. Kwok et al., 1996,J. Exp. Med., 183:1253-1258). The effector to target ratio was 20:1. Spontaneous release was less than 28%.
# TCC 4.2E1 [2] = assay: T-cell proliferation ([3H]thymidine incorporation), TCC 4.2E1; conditions: FIG. 3; peptides used at 3 μM; autologous EBV-LCL APC
# Method: (§2) Triplicate proliferation assay wells contained 10^4 cloned T-cells, 10^5 irradiated (3300 rad) PBMC or 2.5×10^4 irradiated (8000 rad) EBV-LCL as antigen presenting cells (APC), and antigen in 200 μl T-cell media (D. M. Koelle et al., 1997, Human. Immunol., 53:195-205) in 96-well U-bottom plates. When heat-killed bacteria were used as antigen, the equivalent of 10^5 cfu/well (prior to inactivation) was added and gentamicin (20 μg/ml) was included. After 72 hours, 1 μCi/well ^[3]H thymidine was added for 18 hours, cells were harvested, and incorporation of thymidine evaluated by liquid scintillation counting. Standard deviations were less than 10% of the mean values. Results are reported as mean cpm or as delta cpm=mean cpm for experimental antigen minus mean cpm for control antigen. Control antigen was mock-infected cell lysate for whole viral antigens and pUEX2-derived β-galactosidase for recombinant protein preparations. To determine the reactivity of bulk-cultured lesion-derived T-cells, fusion proteins or control β-galactosidase were used at 10 μg/ml. […]
# lesion-derived T cells = assay: Recognition of ICP0 epitopes by lesion-derived T cells; conditions: 743-751: CD8+ T cells, HLA allele B*0702
# From the text: The recognition event involves HLA allele B*0702, which is relatively common (approximately 10%) in the human population.
# TCC RH.13 [3] = assay: T-cell proliferation, TCC RH.13
# Method: (§3) Triplicate proliferation assay wells contained 10^4 cloned T-cells, 10^5 irradiated (3300 rad) PBMC or 2.5×10^4 irradiated (8000 rad) EBV-LCL as antigen presenting cells (APC), and antigen in 200 μl T-cell media (D. M. Koelle et al., 1997, Human. Immunol., 53:195-205) in 96-well U-bottom plates. When heat-killed bacteria were used as antigen, the equivalent of 10^5 cfu/well (prior to inactivation) was added and gentamicin (20 μg/ml) was included. After 72 hours, 1 μCi/well ^[3]H thymidine was added for 18 hours, cells were harvested, and incorporation of thymidine evaluated by liquid scintillation counting. Standard deviations were less than 10% of the mean values. Results are reported as mean cpm or as delta cpm=mean cpm for experimental antigen minus mean cpm for control antigen. Control antigen was mock-infected cell lysate for whole viral antigens and pUEX2-derived β-galactosidase for recombinant protein preparations. To determine the reactivity of bulk-cultured lesion-derived T-cells, fusion proteins or control β-galactosidase were used at 10 μg/ml. To determine HLA restricting loci, HLA DR-specific mAb L243 (V. G. Preston et al., 1978, J. Virol., 28:499-517), HLA DP-specific mAb B7.21 (A. J. Watson et al., 1983, Nature, 304:358-360), or HLA DQ-specific mAb SpV-L3 (H. Spits et al., 1984, Eur. J. Immunol., 14:299-304) were used as described (D. M. Koelle et al., 1994, J. Virol. 68:2803-2810).
# Three epitopes within VP16, all HSV-2 type-specific were previously identified (K. R. Jerome et al., 1998, J. Virol., 72:436-441), and proliferative responses to full-length VP16 in bulk cultures of genital HSV-2 lesion-infiltrating lymphocytes from four of seven (57%) patients were detected (D. M. Koelle et al., 1998, J. Clin. Invest., 101:1500-09). Additional peptide epitopes were sought within VP16 by two strategies. The first strategy involved screening panels of clones recovered from lesion vesicle fluid for reactivity with recombinant VP16 of HSV-2 followed by epitope mapping with peptides. […]
# TCC RH.13 [4] = assay: Cytolysis assay (4-hour 51Cr release), CD4 TCC RH.13; conditions: HSV-2 infected or 1 μM peptide, E:T 20:1
# Method: as §1
# TCC KM.7 [5] = assay: Cytolysis assay (4-hour 51Cr release), CD4 TCC KM.7; conditions: HSV-2 infected or 1 μM peptide, E:T 20:1
# Method: as §1
# TCC KM.7 [6] = assay: T-cell proliferation, TCC KM.7; conditions: VP16 1-492 at 1 μg/ml, β-gal-VP16 180-492 at 1:1,000, peptides at 1 μM
# Method: as §2, with “preparations.” for “preparations. To determine the reactivity of bulk-cultured lesion-derived T-cells, fusion proteins or control β-galactosidase were used at 10 μg/ml.”
# (§4) Three epitopes within VP16, all HSV-2 type-specific were previously identified (K. R. Jerome et al., 1998, J. Virol., 72:436-441), and proliferative responses to full-length VP16 in bulk cultures of genital HSV-2 lesion-infiltrating lymphocytes from four of seven (57%) patients were detected (D. M. Koelle et al., 1998, J. Clin. Invest., 101:1500-09). […]
# TCC ESL4.34 [7] = assay: T-cell proliferation, TCC ESL4.34; conditions: VP16 1-492 at 1 μg/ml, β-gal-VP16 180-492 at 1:1,000, peptides at 1 μM
# Method: as §3
# TCC ESL4.34 [8] = assay: Cytolysis assay (4-hour 51Cr release), CD4 TCC ESL4.34; conditions: HSV-2 infected or 1 μM peptide, E:T 10:1
# Method: Cytolysis assays were performed in triplicate using 4-hour [^51]Cr release as described (D. M. Koelle et al., 1993, J. Clin. Invest., 91:961-968). […] W. Kwok et al., 1996,J. Exp. Med., 183:1253-1258). […] Spontaneous release was less than 28%.
# TCC ESL3.334 [9] = assay: Cytolysis assay (4-hour 51Cr release), CD4 TCC ESL3.334; conditions: HSV-2 infected or 1 μM peptide, E:T 20:1
# Method: as §1
# TCC ESL3.334 [10] = assay: T-cell proliferation, TCC ESL3.334; conditions: VP16 1-492 at 1 μg/ml, β-gal-VP16 180-492 at 1:1,000, peptides at 1 μM
# Method: as §3
# TCC 1A.B.25 [11] = assay: T-cell proliferation, TCC 1A.B.25; conditions: VP16 1-492 at 1 μg/ml, β-gal-VP16 180-492 at 1:1,000, peptides at 1 μM
# Method: as §3
# TCC 1A.B.25 [12] = assay: Cytolysis assay (4-hour 51Cr release), CD4 TCC 1A.B.25; conditions: HSV-2 infected or 1 μM peptide, E:T 20:1
# Method: as §1
# [13] = system: bulk cultures of lesion-infiltrating T-cells; assay: Reactivity of bulk cultures of lesion-infiltrating T-cells with HSV antigens; conditions: four biopsies, day 5 of a buttock recurrence of HSV-2, patient 1; fusion proteins at 10 μg/ml
# Method: as §2
# TCC SB.17 = assay: T-cell proliferation, TCC SB.17; conditions: VP16 1-492 at 1 μg/ml, β-gal-VP16 180-492 at 1:1,000, peptides at 1 μM
# Method: as §2, with “preparations.” for “preparations. To determine the reactivity of bulk-cultured lesion-derived T-cells, fusion proteins or control β-galactosidase were used at 10 μg/ml.”
# as §4
# TCC BM.17 = assay: T-cell proliferation, TCC BM.17; conditions: VP16 1-492 at 1 μg/ml, β-gal-VP16 180-492 at 1:1,000, peptides at 1 μM
# Method: as §2, with “preparations.” for “preparations. To determine the reactivity of bulk-cultured lesion-derived T-cells, fusion proteins or control β-galactosidase were used at 10 μg/ml.”
# as §4
# [14] = allogeneic mismatched EBV-LCL targets
molecule,measurement,setting,value
GGPVGAGGRSHAPPARTPKMTR (GGPVGAGGRSHAPARTPKMTR) [VP22 105-126],percent specific release,"TCC 4.2E1 [1]; allogeneic mismatched EBV-LCL targets, HSV-2 infected or 1 μM peptide",−1.7%
same,percent specific release,"TCC 4.2E1 [1]; autologous EBV-LCL targets, HSV-2 infected or loaded with 1 μM peptide",44.2%
same,stimulation of TCC 4.2E1 by overlapping peptides,TCC 4.2E1 [2],stimulatory
"ICP0 743-751: amino acids 743-751 of ICP0 (QGTLVGALD; UniProt P08393 743-751, looked up, fragment)",recognition by lesion-derived T cells,lesion-derived T cells,specific recognition
"VP16 185-197: HSV-2 VP16 (UL48) peptide, amino acids 185-197",delta cpm [3H] thymidine incorporation compared to media,"TCC RH.13 [3]; TCC RH.13, VP16 1-492 at 1 μg/ml, β-gal-VP16 180-492 at 1:1,000, peptides at 1 μM","55,614 cpm"
same,stimulation of TCC RH.13 by VP16 peptides,TCC RH.13 [3]; epitope mapping with peptides,stimulatory
same,percent specific release,TCC RH.13 [4]; [14],0.3%
same,percent specific release,TCC RH.13 [4]; autologous EBV-LCL targets,55.2%
"VP16 209-221: HSV-2 VP16 (UL48) peptide, amino acids 209-221",percent specific release,TCC KM.7 [5]; [14],4.3%
same,percent specific release,TCC KM.7 [5]; autologous EBV-LCL targets,43.6%
same,delta cpm [3H] thymidine incorporation compared to media,TCC KM.7 [6],"10,075 cpm"
"VP16 393-405: previously reported HSV-2 VP16 peptide epitope, amino acids 393-405 (LVAPRMSFLSAGQ; UniProt P68336 393-405, looked up, fragment)",delta cpm [3H] thymidine incorporation compared to media,TCC ESL4.34 [7],"95,942 cpm"
same,percent specific release,TCC ESL4.34 [8]; [14],0.6%
same,percent specific release,TCC ESL4.34 [8]; autologous EBV-LCL targets,10.4%
"VP16 430-444: previously reported HSV-2 VP16 peptide epitope, amino acids 430-444 (EEVDMTPADALDDFD; UniProt P68336 430-444, looked up, fragment)",percent specific release,TCC ESL3.334 [9]; [14],0.3%
same,percent specific release,TCC ESL3.334 [9]; autologous EBV-LCL targets,33.6%
same,delta cpm [3H] thymidine incorporation compared to media,TCC ESL3.334 [10],"27,283 cpm"
"VP16 431-440: previously reported HSV-2 VP16 peptide epitope, amino acids 431-440 (EVDMTPADAL; UniProt P68336 431-440, looked up, fragment)",delta cpm [3H] thymidine incorporation compared to media,TCC 1A.B.25 [11],"38,664 cpm"
same,percent specific release,TCC 1A.B.25 [12]; [14],2.1%
same,percent specific release,TCC 1A.B.25 [12]; autologous EBV-LCL targets,42.2%
B1,reactivity of bulk lesion-infiltrating T-cell cultures,[13],showed reactivity
B2,delta cpm [3H] thymidine incorporation compared to media,TCC 1A.B.25 [11],"41,123 cpm"
same,delta cpm [3H] thymidine incorporation compared to media,TCC SB.17,"12,178 cpm"
same,delta cpm [3H] thymidine incorporation compared to media,TCC BM.17,"45,958 cpm"
same,delta cpm [3H] thymidine incorporation compared to media,TCC ESL3.334 [10],"16,434 cpm"
